The source made the active and inactive calls. No cut-off for these calls is given here.

In general, IC50 refers to the concentration that gives 50% inhibition. Low values mean greater potency, high ones weaker potency.

The subject of one experiment is CAPAN-1. In words: Antitumor activity against human Capan1 cells xenografted in athymic nu/nu mouse assessed as tumor growth inhibition at 50 mg/kg administered for 5 days. The format is functional, organism-based. (In general: Xenograft models place foreign cells or tissue in a host animal.)
Experiment [1] is described as follows: Inhibition of human SULU1.

With `Cn1nnc2c(C(N)=O)ncn2c1=O`, in the experiment on CAPAN-1, the TGI result was “inactive”. Turning to `NC(=O)c1cc(F)cc2c1C(=O)N(C1CCN(C3CCC(F)(F)CC3)CC1)C2`, the IC50 in experiment [1] is over 10 µM. For `NC(=O)c1cccc2c1C(=O)N(C1CCN(C3CCC(F)(F)CC3)CC1)C2`, in the experiment with MCF7, the IC50 is over 10 µM.

These data come from ChEMBL document CHEMBL3603755 (J Med Chem, 2015).
